This is an account of results in ChEMBL document CHEMBL3862042 (J Med Chem, 2017).

Series [1] concerns the target T1, Phosphatidylinositol 4-kinase type 2-alpha (Homo sapiens, UniProt Q9BTU6). Kind of series: Inhibition of PI4K2A (unknown origin) assessed as remaining enzyme activity by ADP-Glo kinase assay relative to untreated control. On the set-up: concentration or dose not given beside the values.
The subject of series [2] is Coxsackievirus B3. Kind of series: microbe, parasite or virus in culture. The settings on record: Enterovirus B, Nancy, HeLa, 4 h.
For series [3], the system named is Hepatitis C virus. Kind of series: microbe, parasite or virus in culture. The settings on record: subtype 2a JFH1, Huh-7, 72 h.
In series [4] the test system is Hepatitis C virus. Kind of series: microbe, parasite or virus in culture. The settings on record: genotype 1b, Huh-7, 72 h.
A short description of series [5]: Cytotoxicity against human HeLa cells incubated for 3 days by MTT assay. Type of series: toxicity, cell-based.
The subject of series [6] is Human rhinovirus 1A. Kind of series: microbe, parasite or virus in culture. The note with it: HeLa, 72 h.
Series [7] addresses Phosphatidylinositol 4-kinase alpha (Homo sapiens, UniProt P42356). Kind of series: Inhibition of PI4KA (unknown origin) by ADP-Glo kinase assay.
In series [8] the target is T2, Phosphatidylinositol 4-kinase beta (Homo sapiens, UniProt Q9UBF8). Kind of series: Inhibition of PI4KB (unknown origin) by ADP-Glo kinase assay.
For series [9], the target named is T2, Phosphatidylinositol 4-kinase beta. Kind of series: Inhibition of PI4KB (unknown origin) at 1 uM by ADP-Glo kinase assay.
Target sequence in this assay (Q9UBF8 2-816 limits assumed): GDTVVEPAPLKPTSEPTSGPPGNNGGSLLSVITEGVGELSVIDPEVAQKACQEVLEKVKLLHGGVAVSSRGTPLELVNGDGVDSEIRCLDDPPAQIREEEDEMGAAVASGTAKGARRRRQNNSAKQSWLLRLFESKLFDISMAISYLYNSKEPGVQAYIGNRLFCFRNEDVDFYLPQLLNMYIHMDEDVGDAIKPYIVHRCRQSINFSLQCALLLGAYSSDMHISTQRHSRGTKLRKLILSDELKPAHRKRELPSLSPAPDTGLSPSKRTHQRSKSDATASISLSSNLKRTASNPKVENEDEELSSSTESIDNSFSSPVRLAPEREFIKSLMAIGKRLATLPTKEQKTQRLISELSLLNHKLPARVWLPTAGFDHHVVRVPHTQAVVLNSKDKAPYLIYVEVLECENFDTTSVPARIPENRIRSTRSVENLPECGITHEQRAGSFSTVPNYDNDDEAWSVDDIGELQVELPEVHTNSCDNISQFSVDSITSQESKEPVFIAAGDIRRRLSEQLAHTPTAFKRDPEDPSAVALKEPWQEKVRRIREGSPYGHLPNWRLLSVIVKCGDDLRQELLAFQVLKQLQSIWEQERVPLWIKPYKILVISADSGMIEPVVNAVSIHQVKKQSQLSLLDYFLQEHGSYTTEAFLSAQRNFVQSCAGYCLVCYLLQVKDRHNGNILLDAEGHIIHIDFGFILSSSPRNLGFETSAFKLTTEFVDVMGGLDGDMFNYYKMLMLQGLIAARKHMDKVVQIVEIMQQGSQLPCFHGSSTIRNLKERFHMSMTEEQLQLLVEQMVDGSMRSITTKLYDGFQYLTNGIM
Series [10] has as its target Phosphatidylinositol 4,5-bisphosphate 3-kinase catalytic subunit alpha isoform (Homo sapiens, UniProt P42336). Kind of series: Inhibition of PI3Kalpha (unknown origin) by ADP-Glo kinase assay.
Series [11] has as its target Phosphatidylinositol 4,5-bisphosphate 3-kinase catalytic subunit gamma isoform (Homo sapiens, UniProt P48736). Kind of series: Inhibition of PI3Kgamma (unknown origin) by ADP-Glo kinase assay.
Series [12] has as its target T1, Phosphatidylinositol 4-kinase type 2-alpha. Kind of series: Inhibition of PI4K2A (unknown origin) by ADP-Glo kinase assay.
The target of series [13] is Phosphatidylinositol 4,5-bisphosphate 3-kinase catalytic subunit beta isoform (Homo sapiens, UniProt P42338). Kind of series: Inhibition of PI3Kbeta (unknown origin) by ADP-Glo kinase assay.
The target of series [14] is T3, Phosphatidylinositol 4,5-bisphosphate 3-kinase catalytic subunit delta isoform (Homo sapiens, UniProt O00329).
T3 sequence (O00329 whole entry): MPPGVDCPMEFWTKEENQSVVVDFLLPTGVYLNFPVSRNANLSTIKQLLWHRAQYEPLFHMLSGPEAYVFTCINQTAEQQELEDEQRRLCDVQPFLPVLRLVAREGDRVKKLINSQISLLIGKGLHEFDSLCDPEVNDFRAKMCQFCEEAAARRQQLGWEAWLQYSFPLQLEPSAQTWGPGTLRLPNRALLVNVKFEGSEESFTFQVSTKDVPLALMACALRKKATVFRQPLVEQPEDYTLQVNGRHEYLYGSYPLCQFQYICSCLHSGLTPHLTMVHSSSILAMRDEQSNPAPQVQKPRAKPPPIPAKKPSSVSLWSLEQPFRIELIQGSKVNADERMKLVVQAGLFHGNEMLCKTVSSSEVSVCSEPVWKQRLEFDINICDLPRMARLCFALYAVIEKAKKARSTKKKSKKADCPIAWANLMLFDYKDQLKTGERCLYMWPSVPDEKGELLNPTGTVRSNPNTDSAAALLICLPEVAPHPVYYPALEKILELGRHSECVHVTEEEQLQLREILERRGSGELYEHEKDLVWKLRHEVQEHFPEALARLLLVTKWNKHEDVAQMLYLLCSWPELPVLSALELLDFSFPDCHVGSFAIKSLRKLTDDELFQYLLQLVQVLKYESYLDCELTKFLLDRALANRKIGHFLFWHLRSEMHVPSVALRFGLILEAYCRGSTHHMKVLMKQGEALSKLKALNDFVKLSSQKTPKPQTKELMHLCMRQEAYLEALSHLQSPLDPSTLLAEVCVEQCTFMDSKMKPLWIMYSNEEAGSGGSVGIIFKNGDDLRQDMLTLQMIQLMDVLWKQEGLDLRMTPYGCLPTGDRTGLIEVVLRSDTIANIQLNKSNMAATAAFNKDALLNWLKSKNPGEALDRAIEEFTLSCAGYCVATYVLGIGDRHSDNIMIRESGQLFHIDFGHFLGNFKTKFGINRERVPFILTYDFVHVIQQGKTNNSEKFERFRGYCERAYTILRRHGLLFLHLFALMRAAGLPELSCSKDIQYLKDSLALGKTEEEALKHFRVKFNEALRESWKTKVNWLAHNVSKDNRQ
Kind of series: Inhibition of PI3Kdelta (unknown origin) by ADP-Glo kinase assay.

T1 sequence (Q9BTU6 whole entry): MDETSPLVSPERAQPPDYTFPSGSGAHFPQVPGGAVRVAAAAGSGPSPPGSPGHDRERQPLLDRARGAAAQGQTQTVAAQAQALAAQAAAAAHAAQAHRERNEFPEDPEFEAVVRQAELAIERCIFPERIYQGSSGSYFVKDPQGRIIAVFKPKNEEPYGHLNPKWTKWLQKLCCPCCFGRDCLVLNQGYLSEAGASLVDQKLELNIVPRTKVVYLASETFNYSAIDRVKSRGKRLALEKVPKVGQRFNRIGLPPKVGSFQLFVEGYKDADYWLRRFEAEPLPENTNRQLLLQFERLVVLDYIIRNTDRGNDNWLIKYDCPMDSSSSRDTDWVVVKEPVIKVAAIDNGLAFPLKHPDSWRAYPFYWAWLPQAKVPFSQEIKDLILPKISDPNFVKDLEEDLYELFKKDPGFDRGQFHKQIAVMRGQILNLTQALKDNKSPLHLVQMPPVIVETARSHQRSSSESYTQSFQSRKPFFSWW
Sequence of Phosphatidylinositol 4-kinase alpha (P42356 whole entry): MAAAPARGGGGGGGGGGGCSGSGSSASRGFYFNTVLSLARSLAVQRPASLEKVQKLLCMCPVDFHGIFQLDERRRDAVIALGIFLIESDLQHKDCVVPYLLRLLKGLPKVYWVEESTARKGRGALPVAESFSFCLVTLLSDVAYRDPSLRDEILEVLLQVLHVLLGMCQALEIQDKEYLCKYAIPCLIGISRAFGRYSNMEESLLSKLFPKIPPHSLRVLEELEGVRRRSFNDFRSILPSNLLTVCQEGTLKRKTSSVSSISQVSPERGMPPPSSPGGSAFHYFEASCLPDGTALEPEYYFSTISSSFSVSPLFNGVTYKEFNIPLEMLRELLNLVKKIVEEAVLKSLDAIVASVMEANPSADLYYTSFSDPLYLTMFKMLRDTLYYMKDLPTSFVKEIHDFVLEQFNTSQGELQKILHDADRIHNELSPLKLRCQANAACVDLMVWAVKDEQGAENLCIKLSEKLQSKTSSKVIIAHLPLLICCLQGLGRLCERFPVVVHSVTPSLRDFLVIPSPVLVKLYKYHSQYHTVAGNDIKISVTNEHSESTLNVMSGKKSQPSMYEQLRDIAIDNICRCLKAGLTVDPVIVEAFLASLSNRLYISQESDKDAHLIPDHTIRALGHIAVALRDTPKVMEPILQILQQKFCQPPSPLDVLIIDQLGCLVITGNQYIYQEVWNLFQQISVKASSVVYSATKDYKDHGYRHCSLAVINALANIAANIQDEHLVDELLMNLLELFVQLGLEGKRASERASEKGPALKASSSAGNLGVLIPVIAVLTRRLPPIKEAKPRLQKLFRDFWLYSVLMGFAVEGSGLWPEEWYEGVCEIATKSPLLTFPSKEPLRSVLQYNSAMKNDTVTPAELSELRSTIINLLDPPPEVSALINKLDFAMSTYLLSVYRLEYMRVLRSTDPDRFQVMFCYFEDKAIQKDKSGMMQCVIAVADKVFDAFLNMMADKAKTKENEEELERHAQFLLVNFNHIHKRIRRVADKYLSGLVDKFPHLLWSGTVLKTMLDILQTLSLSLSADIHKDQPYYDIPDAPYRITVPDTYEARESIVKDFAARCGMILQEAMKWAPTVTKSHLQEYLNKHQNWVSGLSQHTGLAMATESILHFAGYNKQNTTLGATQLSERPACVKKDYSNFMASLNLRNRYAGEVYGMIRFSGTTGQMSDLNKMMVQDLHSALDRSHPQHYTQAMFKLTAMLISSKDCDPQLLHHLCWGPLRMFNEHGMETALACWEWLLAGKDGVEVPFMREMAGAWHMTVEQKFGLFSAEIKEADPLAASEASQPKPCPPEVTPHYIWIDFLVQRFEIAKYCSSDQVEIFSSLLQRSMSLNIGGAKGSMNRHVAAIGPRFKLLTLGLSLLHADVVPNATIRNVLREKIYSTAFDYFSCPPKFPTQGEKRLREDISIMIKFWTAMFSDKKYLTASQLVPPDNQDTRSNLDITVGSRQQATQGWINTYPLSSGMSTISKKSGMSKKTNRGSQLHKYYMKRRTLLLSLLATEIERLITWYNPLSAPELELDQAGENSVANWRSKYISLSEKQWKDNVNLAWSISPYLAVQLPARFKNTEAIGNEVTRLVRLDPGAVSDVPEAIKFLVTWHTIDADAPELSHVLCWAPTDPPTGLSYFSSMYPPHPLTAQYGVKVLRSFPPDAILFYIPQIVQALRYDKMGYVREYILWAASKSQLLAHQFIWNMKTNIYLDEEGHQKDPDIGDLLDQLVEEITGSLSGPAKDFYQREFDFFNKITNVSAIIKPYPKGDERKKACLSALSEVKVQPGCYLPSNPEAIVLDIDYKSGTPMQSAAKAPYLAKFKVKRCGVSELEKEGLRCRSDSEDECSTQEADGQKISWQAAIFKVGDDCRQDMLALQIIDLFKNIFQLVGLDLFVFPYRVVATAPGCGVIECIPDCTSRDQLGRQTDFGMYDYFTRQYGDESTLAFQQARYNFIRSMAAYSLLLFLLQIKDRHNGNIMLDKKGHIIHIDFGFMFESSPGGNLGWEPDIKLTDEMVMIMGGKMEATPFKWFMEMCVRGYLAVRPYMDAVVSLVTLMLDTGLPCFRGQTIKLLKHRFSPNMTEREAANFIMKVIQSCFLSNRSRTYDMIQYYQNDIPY
Sequence of Phosphatidylinositol 4,5-bisphosphate 3-kinase catalytic subunit gamma isoform (P48736 whole entry, canonical isoform): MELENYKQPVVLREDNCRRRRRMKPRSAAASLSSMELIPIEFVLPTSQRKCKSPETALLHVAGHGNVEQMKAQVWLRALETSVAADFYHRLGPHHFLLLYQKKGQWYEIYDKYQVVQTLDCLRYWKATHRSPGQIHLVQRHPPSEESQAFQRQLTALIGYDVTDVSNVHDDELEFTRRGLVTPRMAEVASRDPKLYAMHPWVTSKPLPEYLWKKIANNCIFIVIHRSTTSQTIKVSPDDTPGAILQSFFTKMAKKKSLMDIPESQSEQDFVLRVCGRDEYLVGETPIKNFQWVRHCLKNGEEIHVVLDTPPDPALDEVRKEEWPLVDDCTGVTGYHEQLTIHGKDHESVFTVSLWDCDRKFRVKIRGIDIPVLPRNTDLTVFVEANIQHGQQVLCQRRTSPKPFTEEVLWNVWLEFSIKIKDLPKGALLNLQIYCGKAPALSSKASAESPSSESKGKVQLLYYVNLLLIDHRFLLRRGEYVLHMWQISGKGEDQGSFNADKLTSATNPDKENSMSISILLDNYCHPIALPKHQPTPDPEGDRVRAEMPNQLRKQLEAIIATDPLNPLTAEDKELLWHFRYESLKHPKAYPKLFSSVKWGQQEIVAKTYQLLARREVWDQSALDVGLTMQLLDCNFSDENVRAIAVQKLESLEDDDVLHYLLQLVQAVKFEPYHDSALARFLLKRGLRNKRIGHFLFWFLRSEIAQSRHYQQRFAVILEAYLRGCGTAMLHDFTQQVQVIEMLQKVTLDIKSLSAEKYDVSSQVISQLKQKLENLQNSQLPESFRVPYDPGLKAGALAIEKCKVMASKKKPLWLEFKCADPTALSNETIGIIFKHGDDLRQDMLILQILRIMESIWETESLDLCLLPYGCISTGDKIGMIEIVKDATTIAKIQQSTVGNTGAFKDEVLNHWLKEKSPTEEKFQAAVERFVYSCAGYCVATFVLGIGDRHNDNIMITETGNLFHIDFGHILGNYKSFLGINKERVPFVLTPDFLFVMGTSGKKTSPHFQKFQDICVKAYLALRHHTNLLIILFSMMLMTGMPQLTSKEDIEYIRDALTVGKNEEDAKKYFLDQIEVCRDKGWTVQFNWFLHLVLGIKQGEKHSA

With `COc1ccc(-c2c(C)nc3c(NCCNC(C)=O)cc(Cl)nn23)cc1S(=O)(=O)NCCO`, the Activity in [1] was determined as 112%.

Take `CCc1cc(CNc2cc(Cl)nn3c(-c4ccc(OC)c(S(=O)(=O)N5CCC(CO)CC5)c4)c(C)nc23)ccn1`: the Activity in series [1] amounted to 115%.

Consider `COCCNS(=O)(=O)c1cc(-c2c(C)nc3c(NCCNC(C)=O)cc(Cl)nn23)ccc1OC`, for which the Activity in series [1] came out at 107%.

In the case of `COc1ccc(-c2c(C)nc3c(NCCNC(C)=O)cc(Cl)nn23)cc1S(=O)(=O)NC1CCC(N)CC1` (configuration not stated), in series [1], the Activity came out at 102%.

Consider `CCC(CO)NS(=O)(=O)c1cc(-c2c(C)nc3c(NCCNC(C)=O)cc(Cl)nn23)ccc1OC` (configuration not stated), for which the EC50 is 1.66 µM in series [2], more than 44.4 µM in [3], 3.42 µM in series [4] and 6.76 µM in [6]. In addition, the Activity in series [1] stood at 77%. Moreover, the CC50 at 72 h in [5] was more than 50 µM.

Turning to `CCc1cc(CNc2cc(Cl)nn3c(-c4ccc(OC)cc4)c(C)nc23)ccn1`, the Activity in [1] worked out at 101%.

In the case of `CCc1cc(CNc2cc(Cl)nn3c(-c4ccc(OC)c(S(=O)(=O)NCCOC)c4)c(C)nc23)ccn1`, the EC50 in [2] is less than 0.02 µM; in [3], 27.9 µM; in series [4], 0.416 µM; in [6], less than 0.01 µM. The Activity in series [1] was 104%. In series [5], this molecule returned a CC50 at 72 h of 9.14 µM.

On to `CCc1cc(CNc2cc(Cl)nn3c(-c4ccc(OC)c(S(=O)(=O)NC(CC)CO)c4)c(C)nc23)ccn1` (configuration not stated), for which the EC50 in [2] is 0.476 µM; in series [3] it was 9.44 µM; in series [4], less than 0.02 µM; in [6], less than 0.01 µM. For the same molecule, the Activity in [1] was found to be 104%. The CC50 at 72 h in [5] came out at 17.9 µM.

On to `COc1ccc(-c2c(C)nc3c(NCCNC(C)=O)cc(Cl)nn23)cc1S(=O)(=O)N(C)C`, for which the EC50 in series [2] is 1.32 µM; in series [3] it was more than 44.4 µM; in series [4] it was 0.594 µM; in series [6], 0.716 µM. The Activity in series [1] amounted to 104%. The molecule further gave a CC50 at 72 h in [5] of 84.2 µM.

Regarding `COc1ccc(-c2c(C)nc3c(NCCNC(C)=O)cc(Cl)nn23)cc1S(=O)(=O)n1cccn1`, the Activity in series [1] stood at 83%.

For `C=CCNS(=O)(=O)c1cc(-c2c(C)nc3c(NCc4ccnc(CC)c4)cc(Cl)nn23)ccc1OC`, the EC50 was 0.012 µM in [2], 20.1 µM in series [3], 0.667 µM in series [4] and less than 0.01 µM in series [6]. Besides, the Activity in [1] is 105%. The same molecule came in with a CC50 at 72 h in [5] of 6.85 µM.

As to `COc1ccc(-c2c(C)nc3c(NCCNC(C)=O)cc(Cl)nn23)cc1S(=O)(=O)N1CCOCC1`, the EC50 was 0.038 µM in series [2], more than 44.4 µM in series [3], 1.03 µM in series [4] and 0.655 µM in [6]. In [1], the Activity came to 88%. Also, the CC50 at 72 h in series [5] amounted to 89.2 µM.

With `CCc1cc(CNc2cc(Cl)nn3c(-c4cccc(S(=O)(=O)N(C)C)c4)c(C)nc23)ccn1`, the EC50 was determined as 1.1 µM in [2], 8.69 µM in series [3], 0.393 µM in [4] and 0.062 µM in series [6]. The molecule also came in with a CC50 at 72 h in series [5] of 15.4 µM.

Consider `CCc1cc(CNc2cc(Cl)nn3c(-c4ccc(OC)c(S(=O)(=O)N(C)C)c4)c(C)nc23)ccn1`, for which the Activity in series [1] is 106%.

With `CCc1cc(CNc2cc(Cl)nn3c(-c4ccc(OC)c(S(=O)(=O)NCCN(C)C)c4)c(C)nc23)ccn1`, the EC50 in series [2] is 0.151 µM; in [3] it was 8.51 µM; in [4] it was 0.35 µM; in series [6], less than 0.01 µM. For the same molecule, the Activity in series [1] was determined as 100%. In series [5], this molecule showed a CC50 at 72 h of 5.56 µM.

With `CC(=O)NCCNc1cc(Cl)nn2c(-c3cccc(S(=O)(=O)N(C)C)c3)c(C)nc12`, the IC50 in series [7] is more than 100 µM; in series [8], 0.054 µM.

On to `COc1ccc(-c2c(C)nc3c(NCCNC(C)=O)cc(Cl)nn23)cc1S(=O)(=O)N1CCC(CO)CC1`, for which the EC50 in series [2] was 5 µM; in series [3], more than 44.4 µM; in [4], 1.83 µM; in series [6], 5.42 µM. For the same molecule, the Activity in series [1] came out at 85%. In addition, the midpoint of cytotoxicity in [5], the CC50 at 72 h, lay at 131 µM.

On to `CCc1cc(CNc2cc(Cl)nn3c(-c4ccc(OC)c(S(=O)(=O)N5CCOCC5)c4)c(C)nc23)ccn1`, for which the EC50 in [2] was 0.083 µM; in series [3], 26 µM; in [4], 1.02 µM; in [6] it was less than 0.01 µM. Further, the Activity in series [1] is 97%. The same molecule came in with a CC50 at 72 h in series [5] of 25.7 µM.

As to `CCc1cc(CNc2cc(Cl)nn3c(-c4ccc(OC)c(S(=O)(=O)NC5CC5)c4)c(C)nc23)ccn1`, in series [1], the Activity was 114%.

With `CCc1cc(CNc2cc(Cl)nn3c(-c4ccc(OC)c(S(=O)(=O)N5CCC(O)CC5)c4)c(C)nc23)ccn1`, the EC50 in series [2] is 0.017 µM; in series [3], 20.4 µM; in series [4], 0.02 µM; in series [6] it was less than 0.01 µM. The Activity in series [1] stood at 109%. For the same molecule, half-maximal cytotoxicity in series [5] (CC50 at 72 h) was put at 8.4 µM.

On to `CCc1cc(CNc2cc(Cl)nn3c(-c4ccc(OC)c(S(=O)(=O)NC5CCC(N)CC5)c4)c(C)nc23)ccn1` (configuration not stated), for which the EC50 in [2] came to 0.056 µM; in series [3], 26.5 µM; in [4], 9.2 µM; in series [6], 0.069 µM. For the same molecule, the Activity in [1] is 101%. Moreover, in [5], half-maximal cytotoxicity (CC50 at 72 h) was put at 5.76 µM.

As for `COc1ccc(-c2c(C)nc3c(NCCNC(C)=O)cc(Cl)nn23)cc1S(=O)(=O)N1CCCCC1`, the Activity in series [1] was 60%.

Take `CCc1cc(CNc2cc(Cl)nn3c(-c4ccc(OC)c(S(=O)(=O)N5CCCCC5)c4)c(C)nc23)ccn1`: the Activity in [1] was determined as 99%.

In the case of `CCc1cc(CNc2cc(Cl)nn3c(-c4ccc(OC)c(S(=O)(=O)n5cccn5)c4)c(C)nc23)ccn1`, the EC50 is 0.138 µM in [2], more than 44.4 µM in series [3], 0.954 µM in [4] and less than 0.01 µM in series [6]. The Activity in series [1] turned out to be 112%. Besides, the CC50 at 72 h in series [5] turned out to be 61.9 µM.

In the case of `COc1ccc(-c2c(C)nc3c(NCCNC(C)=O)cc(Cl)nn23)cc1S(=O)(=O)NC1CC1`, the Activity in [1] stood at 108%.

In the case of `COc1ccc(-c2c(C)nc3c(NCCNC(C)=O)cc(Cl)nn23)cc1S(=O)(=O)N1CCC(O)CC1`, the Activity in series [1] turned out to be 88%.

Consider `CNCCNS(=O)(=O)c1cc(-c2c(C)nc3c(NCCNC(C)=O)cc(Cl)nn23)ccc1OC`, for which, in [1], the Activity is 73%.

Regarding `C=CCNS(=O)(=O)c1cc(-c2c(C)nc3c(NCCNC(C)=O)cc(Cl)nn23)ccc1OC`, the EC50 in series [2] was 5.31 µM; in series [3] it was 35.9 µM; in [4], 2.68 µM; in series [6], 0.99 µM. Moreover, the Activity in [1] is 93%. Also, it took 445 µM to reach half-maximal cytotoxicity in [5] (CC50 at 72 h).

With `COc1ccc(-c2c(C)nc3c(NCCNC(C)=O)cc(Cl)nn23)cc1S(=O)(=O)NCCN(C)C`, the Activity in series [1] stood at 105%.

In the case of `CCc1cc(CNc2cc(Cl)nn3c(-c4ccc(OC)c(S(=O)(=O)NCCO)c4)c(C)nc23)ccn1`, the EC50 in series [2] is 0.058 µM; in series [3] it was 14.4 µM; in series [4], 0.029 µM; in [6] it was 0.075 µM. Moreover, in [1], the Activity turned out to be 106%. Further, the inhibition in series [9] was 50%. Further, the IC50 in [10] is less than 10 µM; in [11], less than 10 µM; in [12], more than 10 µM; in [7], 13.4 µM; in series [13], less than 10 µM; in [14], less than 10 µM. For the same molecule, the midpoint of cytotoxicity in series [5], the CC50 at 72 h, lay at 18.3 µM.
